# Assay results published in paper PMC3029338, “Highly Selective End-Tagged Antimicrobial Peptides Derived from PRELP” (PLoS ONE, 2011).
# Ends that are not written are not given here.
# Experiments:
# [1] = molecular target: T1, P. aeruginosa elastase (Pseudomonas aeruginosa, UniProt P14756); assay type: in vitro ADME; settings: 37°C, in words; for stability against P. aeruginosa elastase: 1 µg peptide, 0.1 µg enzyme, 30 µl, 3 hours (legend: 4 h), SDS-PAGE Coomassie; for stability against P. aeruginosa elastase, extended digestion: different times up to 18 h, SDS-PAGE
# T1 construct: purchased Calbiochem (La Jolla, USA)
# T1 sequence (P14756 198-498): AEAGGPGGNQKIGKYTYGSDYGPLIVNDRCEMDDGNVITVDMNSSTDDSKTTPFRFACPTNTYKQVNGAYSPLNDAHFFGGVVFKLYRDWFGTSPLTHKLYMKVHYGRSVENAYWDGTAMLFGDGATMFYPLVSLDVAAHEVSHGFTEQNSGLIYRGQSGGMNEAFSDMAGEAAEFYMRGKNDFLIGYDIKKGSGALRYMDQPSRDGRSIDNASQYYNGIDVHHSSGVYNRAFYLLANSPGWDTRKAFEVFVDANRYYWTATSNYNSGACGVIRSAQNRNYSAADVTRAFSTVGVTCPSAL
# Protocol: […] The materials were analyzed on 16.5% precast sodium dodecyl sulfate polyacrylamide (SDS-PAGE) Tris-Tricine gels (BioRad, Hercules, USA) and analyzed after staining with Coomassie Blue R-250 (Merck, Darmstadt, Germany).
# [2] = system: human erythrocytes in 50% citrate blood with S. aureus or P. aeruginosa; settings: peptide 120 µM (highest dose), 1 hour 37°C, in words
# Protocol: For analysis of peptide-induced permeabilization of human erythroytes, EDTA-, or citrate-blood was drawn from healthy volunteers, [51], centrifuged at 800 g for 10 min, and plasma and buffy coat were removed. For experiments using EDTA-blood, [51] erythrocytes were washed three times and resuspended to 5% in PBS, pH 7.4. For experiments in 50% blood, citrate-blood was diluted (1∶1) with PBS. The cells were then incubated with end-over-end rotation for 1 h at 37°C in the presence of peptides (60 µM). 2% Triton X-100 (Sigma-Aldrich, St. Louis, USA) served as positive control. The samples were then centrifuged at 800 g for 10 min. The absorbance of hemoglobin release was measured at 540 nm and is expressed as % of TritonX-100 induced hemolysis. In the experiments with blood infected by bacteria, citrate-blood was diluted (1∶1) with PBS. The cells were then incubated with end-over-end rotation for 1 h at 37°C in the presence of peptides (60 and 120 µM) and S. aureus (2×10^8 cfu/ml) or P. aeruginosa (2×10^8 cfu/ml) bacteria. For evaluation of hemolysis, samples were then processed as above. Results given represent mean values from triplicate measurements.
# [3] = molecular target: T2, S. aureus V8 proteinase (Staphylococcus aureus, UniProt P0C1U8); assay: Protease sensitivity assay (SDS-PAGE); assay type: in vitro ADME; settings: 1 µg peptide, 0.1 µg enzyme, 30 µl, 37°C, 3 hours (legend: 4 h), SDS-PAGE Coomassie; in words
# T2 construct: purchased BioCol GmbH (Potsdam, Germany)
# T2 sequence (P0C1U8 69-336): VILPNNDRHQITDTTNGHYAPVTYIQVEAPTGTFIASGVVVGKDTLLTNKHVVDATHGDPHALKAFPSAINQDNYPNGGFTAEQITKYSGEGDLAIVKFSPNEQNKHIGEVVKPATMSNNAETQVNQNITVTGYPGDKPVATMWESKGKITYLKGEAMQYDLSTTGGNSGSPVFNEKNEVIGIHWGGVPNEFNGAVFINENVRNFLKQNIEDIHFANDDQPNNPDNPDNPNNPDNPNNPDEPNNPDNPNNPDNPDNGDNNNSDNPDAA
# Protocol: (§1) For evaluation of sensitivity to bacterial and endogenous proteases, peptides (1 µg) were incubated at 37°C with S. aureus aureolysin (0.1 µg, 25000 units/mg), S. aureus V8 proteinase (0.1 µg, 2000 mU), both from BioCol GmbH (Potsdam, Germany), human neutrophil elastase (0.4 µg, 29 units/mg; Calbiochem (La Jolla, USA)) or P. aeruginosa elastase (0.1 µg, 261 units/mg) (Calbiochem, La Jolla, USA) in a total volume of 30 µl for 3 hours. The materials were analyzed on 16.5% precast sodium dodecyl sulfate polyacrylamide (SDS-PAGE) Tris-Tricine gels (BioRad, Hercules, USA) and analyzed after staining with Coomassie Blue R-250 (Merck, Darmstadt, Germany).
# [4] = molecular target: T3, human neutrophil elastase (Homo sapiens, UniProt P08246); assay: Protease sensitivity assay (SDS-PAGE); assay type: in vitro ADME; settings: 1 µg peptide, 0.4 µg enzyme, 30 µl, 37°C, 3 hours (legend: 4 h), SDS-PAGE Coomassie; in words
# T3 construct: purchased Calbiochem (La Jolla, USA)
# T3 sequence (P08246 30-267): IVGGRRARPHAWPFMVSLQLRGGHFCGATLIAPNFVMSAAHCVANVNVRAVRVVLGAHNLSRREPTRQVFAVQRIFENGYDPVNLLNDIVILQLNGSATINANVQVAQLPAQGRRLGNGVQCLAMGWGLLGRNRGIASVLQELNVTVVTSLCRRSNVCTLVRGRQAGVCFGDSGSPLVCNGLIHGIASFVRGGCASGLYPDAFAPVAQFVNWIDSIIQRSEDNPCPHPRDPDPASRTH
# Protocol: as §1
# [5] = molecular target: T4, S. aureus aureolysin (Staphylococcus aureus, UniProt P81177); assay: Protease sensitivity assay (SDS-PAGE); assay type: in vitro ADME; settings: 1 µg peptide, 0.1 µg enzyme, 30 µl, 37°C, 3 hours (legend: 4 h), SDS-PAGE Coomassie; in words
# T4 construct: purchased BioCol GmbH (Potsdam, Germany)
# T4 sequence (P81177 209-509): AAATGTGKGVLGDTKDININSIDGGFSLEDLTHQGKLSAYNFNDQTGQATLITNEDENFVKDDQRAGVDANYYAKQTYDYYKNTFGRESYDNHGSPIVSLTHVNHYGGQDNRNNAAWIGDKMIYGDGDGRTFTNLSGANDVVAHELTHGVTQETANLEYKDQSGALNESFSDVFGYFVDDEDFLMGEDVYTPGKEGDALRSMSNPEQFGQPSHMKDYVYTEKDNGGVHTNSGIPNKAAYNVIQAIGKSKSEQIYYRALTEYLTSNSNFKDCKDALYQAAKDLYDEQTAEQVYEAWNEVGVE
# Protocol: as §1
# [6] = system: P. aeruginosa; settings: in words; cited from earlier work
# Source text: (§2) Considering the increasing resistance problems against conventional antibiotics, AMPs have recently emerged as potential therapeutic candidates in the above conditions. For example, the indolicidin-derived peptide omiganan is currently being evaluated in Phase III clinical trials for treatment of catheter-related infections. However, the use of AMPs in this context is challenging, as bacteria are able to excrete proteolytic enzymes, [38], and in the case of P. aeruginosa also AMP-scavenging exopolysaccharides, as a defense against AMPs.
# [7] = system: S. aureus; settings: in words; cited from earlier work
# Source text: as §2
# [8] = system: erythrocytes; settings: cited from earlier work
# Source text: as §2
# [9] = system: Escherichia coli - ESBL - CTXM; assay type: cell-based
# Protocol: (§3) In order to determine the minimal inhibitory concentration (MIC) for a given peptide and bacteria, we used a standardized dilution method according to NCSLA guidelines. In brief, fresh overnight colonies were suspended to a turbidity of 0.5 units and further diluted in Mueller-Hinton broth (MH) (Becton Dickinson). For determination of MIC, peptides were dissolved in water at concentration 10 times higher than the required range by serial dilutions from a stock solution. Ten µl of each concentration was added to each corresponding well of a 96-well microtiter plate (polypropylene, Costar Corp.) and 90 µl of bacteria (1×10^5) in MH medium added. The plate was incubated at 37°C for 16–18 h. MIC was considered as the lowest concentration of peptide where no visual growth of bacteria was detected. Additional MIC determinations presented in Table 2 were performed using cation-adjusted MH broth at Quotient Bioresearch Ltd., Fordham, United Kingdom.
# [10] = system: Staphylococcus saprophyticus – antibiotic susceptible clinical isolate; assay type: cell-based
# Protocol: as §3
# [11] = system: EMRSA3 Staphylococcus aureus (MRSA) – SSCmec type 1; assay type: cell-based; settings: EMRSA3 – SSCmec type 1
# Protocol: as §3
# [12] = system: EMRSA15 Staphylococcus aureus (MRSA) – SSCmec type 4; assay type: cell-based; settings: EMRSA15 – SSCmec type 4
# Protocol: as §3
# [13] = system: Group C Streptococcus – macrolide-resistant clinical isolate; assay type: cell-based
# Protocol: as §3
# [14] = system: Pseudomonas aeruginosa - multi-drug resistant clinical isolate; assay type: cell-based
# Protocol: as §3
# [15] = system: Escherichia coli - ESBL - SHV; assay type: cell-based
# Protocol: as §3
# [16] = system: Escherichia coli ATCC 25922 - antibiotic-susceptible type strain; assay type: cell-based
# Protocol: as §3
# [17] = system: Escherichia coli ATCC 35218 - β-lactamase positive type strain; assay type: cell-based
# Protocol: as §3
# [18] = system: Group G Streptococcus – macrolide-resistant clinical isolate; assay type: cell-based
# Protocol: as §3
# [19] = system: Streptococcus pyogenes – ATCC 19615; assay type: cell-based
# Protocol: as §3
# [20] = system: EMRSA1 Staphylococcus aureus (MRSA) – SSCmec type 3; assay type: cell-based; settings: EMRSA1 – SSCmec type 3
# Protocol: as §3
# [21] = system: Streptococcus pyogenes – antibiotic-susceptible clinical isolate; assay type: cell-based
# Protocol: as §3
# [22] = system: Pseudomonas aeruginosa ATCC 27853 - antibiotic-susceptible type strain; assay type: cell-based
# Protocol: as §3
# [23] = system: Staphylococcus aureus ATCC 43300 – methicillin-resistant type strain; assay type: cell-based
# Protocol: as §3
# [24] = system: Staphylococcus epidermidis – antibiotic susceptible clinical isolate; assay type: cell-based
# Protocol: as §3
# [25] = system: EMRSA16 Staphylococcus aureus (MRSA) – SSCmec type 2; assay type: cell-based; settings: EMRSA16 – SSCmec type 2
# Protocol: as §3
# [26] = system: Staphylococcus aureus – methicillin-resistant clinical isolate; assay type: cell-based
# Protocol: as §3
# [27] = system: Staphylococcus epidermidis– methicillin-resistant clinical isolate; assay type: cell-based
# Protocol: as §3
# [28] = system: Group G Streptococcus – antibiotic-susceptible clinical isolate; assay type: cell-based
# Protocol: as §3
# [29] = system: Escherichia coli - ESBL - TEM; assay type: cell-based
# Protocol: as §3
# [30] = system: Staphylococcus aureus ATCC 29213 – antibiotic-susceptible type strain; assay type: cell-based
# Protocol: as §3
# [31] = system: Escherichia coli - multi-drug resistant clinical isolate; assay type: cell-based
# Protocol: as §3
# [32] = system: Streptococcus pyogenes – Macrolide (MLS) resistant clinical isolate; assay type: cell-based
# Protocol: as §3
# [33] = system: HT2001254 Staphylococcus aureus (MRSA) – PVL positive; assay type: cell-based
# Protocol: as §3
# [34] = system: Pseudomonas aeruginosa – Liverpool genotype LES 431; assay type: cell-based
# Protocol: as §3
# [35] = system: Streptococcus pyogenes – Macrolide (M-type) resistance clinical isolate; assay type: cell-based
# Protocol: as §3
# [36] = system: Staphylococcus aureus - teicoplanin-intermediate clinical isolate; assay type: cell-based
# Protocol: as §3
# [37] = system: Group C Streptococcus – antibiotic-susceptible clinical isolate; assay type: cell-based
# Protocol: as §3
# [38] = system: Staphylococcus aureus - multi-drug-resistant clinical isolate; assay type: cell-based
# Protocol: as §3
# [39] = system: Staphylococcus haemolyticus – antibiotic susceptible clinical isolate; assay type: cell-based
# Protocol: as §3
# [40] = system: MU50 Staphylococcus aureus (MRSA) – VISA type strain; assay type: cell-based
# Protocol: as §3
compound,measurement,setting,value
CC[C@H](C)[C@H](NC(=O)[C@H](CCCCN)NC(=O)[C@H](CCC(=O)O)NC(=O)[C@H](CCCCN)NC(=O)[C@H](CO)NC(=O)[C@H](CCCCN)NC(=O)[C@H](CCCNC(=N)N)NC(=O)[C@H](Cc1ccccc1)NC(=O)[C@H](Cc1ccccc1)NC(=O)[C@H](CC(=O)O)NC(=O)CNC(=O)[C@H](CC(C)C)NC(=O)[C@@H](N)CC(C)C)C(=O)NCC(=O)N[C@@H](CCCCN)C(=O)N[C@@H](CCC(=O)O)C(=O)N[C@@H](Cc1ccccc1)C(=O)N[C@@H](CCCCN)C(=O)N[C@@H](CCCNC(=N)N)C(=O)N[C@H](C(=O)N[C@H](C(=O)N[C@@H](CCC(N)=O)C(=O)N[C@@H](CCCNC(=N)N)C(=O)N[C@H](C(=O)N[C@@H](CCCCN)C(=O)N[C@@H](CC(=O)O)C(=O)N[C@@H](Cc1ccccc1)C(=O)N[C@@H](CC(C)C)C(=O)N[C@@H](CCCNC(=N)N)C(=O)N[C@@H](CC(N)=O)C(=O)N[C@@H](CC(C)C)C(=O)N[C@H](C(=O)N1CCC[C@H]1C(=O)N[C@@H](CCCNC(=N)N)C(=O)N[C@H](C(=O)N[C@@H](CCC(=O)O)C(=O)N[C@@H](CO)C(=O)O)[C@@H](C)O)C(C)C)[C@@H](C)CC)C(C)C)[C@@H](C)CC [reference compound],stability against P. aeruginosa elastase,[1],extensively degraded
same,hemolysis in human blood infected by bacteria,[2],significant concomitant hemolysis
same,stability against S. aureus V8 proteinase,[3],extensively degraded
same,stability against human neutrophil elastase,[4],extensively degraded
same,stability against S. aureus aureolysin,[5],extensively degraded
GRRPRPRPRPWWWW-NH2 [GRRPRPRPRPWWWW-NH2],stability against P. aeruginosa elastase,[1],largely unaffected
same,stability against S. aureus V8 proteinase,[3],largely unaffected
same,stability against S. aureus aureolysin,[5],largely unaffected
"ILRWPWWPWRRK-NH2 [ILRWPWWPWRRK-NH2, reference compound]","stability against P. aeruginosa elastase, extended digestion",[1],degraded during extended digestion
"QPTRRPRPGTGPGRRPRPRPRP [QPT22, PRELP-derived peptide of earlier work]",antimicrobial effects,[6],exert antimicrobial effects
same,antimicrobial effects,[7],exert antimicrobial effects
same,hemolytic activity,[8],no hemolytic activity
RRPRPRPRPWWWW-NH2 [RRPRPRPRPWWWW-NH2],stability against P. aeruginosa elastase,[1],largely unaffected
same,"stability against P. aeruginosa elastase, extended digestion",[1],maintained stability
same,hemolysis in human blood infected by bacteria,[2],no accompanying hemolysis
same,stability against S. aureus V8 proteinase,[3],largely unaffected
same,stability against S. aureus aureolysin,[5],largely unaffected
same,MIC,[9],16 µg/mL
same,MIC,[10],64 µg/mL
same,MIC,[11],16 µg/mL
same,MIC,[12],16 µg/mL
same,MIC,[13],8 µg/mL
same,MIC,[14],128 µg/mL
same,MIC,[15],32 µg/mL
same,MIC,[16],16 µg/mL
same,MIC,[17],16 µg/mL
same,MIC,[18],16 µg/mL
same,MIC,[19],16 µg/mL
same,MIC,[20],32 µg/mL
same,MIC,[21],32 µg/mL
same,MIC,[22],64 µg/mL
same,MIC,[23],16 µg/mL
same,MIC,[24],8 µg/mL
same,MIC,[25],32 µg/mL
same,MIC,[26],32 µg/mL
same,MIC,[27],8 µg/mL
same,MIC,[28],32 µg/mL
same,MIC,[29],16 µg/mL
same,MIC,[30],16 µg/mL
same,MIC,[31],16 µg/mL
same,MIC,[32],16 µg/mL
same,MIC,[33],32 µg/mL
same,MIC,[34],128 µg/mL
same,MIC,[35],16 µg/mL
same,MIC,[36],32 µg/mL
same,MIC,[37],8 µg/mL
same,MIC,[38],32 µg/mL
same,MIC,[39],8 µg/mL
same,MIC,[40],32 µg/mL
